Key:
[1] = tested on: rat; details: Multigenerational reproductive toxicity study, sprague dawley, Oral, Feed, dose end: 3 generation
[2] = tested on: rat; details: Prenatal developmental toxicity study, other, Oral, Feed, dose end: 15 GD
[3] = tested on: dog; details: Chronic toxicity, beagle, Oral, Feed, dose end: 12 month, group: systemic
[4] = tested on: rabbit; details: Prenatal developmental toxicity study, new zealand white, Oral, Gavage/Intubation, dose end: 19 GD
[5] = tested on: mouse; details: Carcinogenicity; cd1; Oral; Feed; dose end: 24 month; group: systemic; systemic / hematology / methemoglobin / methemoglobin + systemic / in life observation / body weight / body weight + systemic / in life …
[6] = tested on: rat; details: Combined chronic toxicity/carcinogenicity; sprague dawley; Oral; Feed; dose end: 2 year; group: systemic; systemic / in life observation / body weight / body weight + systemic / in life observation / body weight / body weight gain + systemic / …
[7] = tested on: rat; details: Multigenerational reproductive toxicity study, other, Oral, Feed, dose end: 2 generation
[8] = tested on: rat; details: Subchronic oral toxicity in rodents, wistar, [Not Specified], dose end: 90 day, group: systemic
[9] = tested on: dog; details: Chronic toxicity; beagle; Oral; Capsule; dose end: 52 week; group: systemic; systemic / clinical chemistry / alkaline phosphatase (alp/alk) / alkaline phosphatase (alp/alk) + systemic / clinical chemistry / …
[10] = tested on: mouse; details: Combined chronic toxicity/carcinogenicity, cd1, Oral, Feed, dose end: 2 year, group: systemic
[11] = tested on: rat; details: Multigenerational reproductive toxicity study, wistar, Oral, Feed, dose end: 2 generation
[12] = tested on: rat; details: Combined chronic toxicity/carcinogenicity, sprague dawley, Oral, Feed, dose end: 2 year, group: systemic
[13] = tested on: rabbit; details: Prenatal developmental toxicity study, new zealand white, Oral, Gavage/Intubation, dose end: 19 GD; remark: listed apart in the source
[14] = tested on: rat; details: Prenatal developmental toxicity study, wistar, Oral, Gavage/Intubation, dose end: 15 GD
[15] = group: offspring, developmental / offspring survival late / viability index / viability index + systemic / in life observation / body weight / offspring (pup…
[16] = group: parental, systemic / in life observation / body weight / body weight + systemic / in life observation / body weight / body weight gain
[17] = group: reproductive, reproductive / reproductive performance / fertility / fertility
[18] = group: developmental, developmental / developmental malformation / bone / bipartite ossification + developmental / developmental malformation / bone / delayed …
[19] = group: maternal, systemic / in life observation / body weight / body weight + systemic / in life observation / food consumption / food consumption + …
[20] = systemic / hematology / methemoglobin / methemoglobin + systemic / hematology / sulphemoglobin / sulphemoglobin
[21] = systemic / hematology / methemoglobin / methemoglobin + systemic / hematology / sulphemoglobin / sulphemoglobin + systemic / clinical …
[22] = group: developmental, developmental / developmental malformation / bone / [other] + developmental / developmental malformation / bone / hole(s) + developmental / …
[23] = group: maternal, systemic / in life observation / body weight / body weight gain
[24] = group: maternal, systemic / in life observation / body weight / body weight gain + reproductive / reproductive performance / aborted / aborted + systemic / …
[25] = group: offspring, systemic / in life observation / body weight / offspring (pup) weight + developmental / developmental malformation / diaphragm / hernia + …
[26] = group: parental, systemic / in life observation / body weight / body weight gain + systemic / in life observation / body weight / body weight + systemic / in…
[27] = group: reproductive, reproductive / offspring survival early / birth index / live birth index
[28] = systemic / clinical chemistry / aminopyrine-n-demethylase / aminopyrine-n-demethylase + systemic / organ weight / liver / absolute + …
[29] = systemic / urinalysis / volume / volume
[30] = group: offspring, systemic / in life observation / clinical signs / red or crusty deposits around eyes, ears, nose, or mouth + systemic / pathology gross / …
[31] = group: parental, systemic / in life observation / body weight / body weight gain + systemic / in life observation / food consumption / food consumption + …
[32] = systemic / pathology microscopic / liver / hypertrophy
[33] = group: developmental, developmental / developmental malformation / bone / short supernumerary + developmental / developmental malformation / bone / full …
[34] = group: maternal, systemic / in life observation / body weight / body weight + systemic / in life observation / body weight / body weight gain + systemic / in…
[35] = group: developmental, developmental / developmental malformation / mouth / jaw / cleft palate
[36] = group: maternal, systemic / in life observation / body weight / body weight gain + systemic / in life observation / clinical signs / urogenital staining + …

CON(C)C(=O)Nc1ccc(Cl)c(Cl)c1 [Linuron]
LEL [1, 15]: 44 mg/kg/day | LOAEL [1, 15]: 44 mg/kg/day | NEL [1, 15]: 9 mg/kg/day | NOAEL [1, 15]: 9 mg/kg/day | LEL ([1]; group: parental, systemic / in life observation / body weight / body weight): 9 mg/kg/day | LOAEL ([1]; group: parental, systemic / in life observation / body weight / body weight + systemic / hematology / erythrocyte (rbc) count differential / erythrocyte (rbc…): 10 mg/kg/day | NEL [1, 16]: 2 mg/kg/day | NOAEL [1, 16]: 2 mg/kg/day | LEL [1, 17]: 44 mg/kg/day | LOAEL [1, 17]: 44 mg/kg/day | NEL [1, 17]: 9 mg/kg/day | NOAEL [1, 17]: 9 mg/kg/day | LEL [2, 18]: 50 mg/kg/day | LOAEL [2, 18]: 50 mg/kg/day | NEL [2, 18]: 12 mg/kg/day | NOAEL [2, 18]: 12 mg/kg/day | LOAEL ([2]; group: maternal, systemic / in life observation / body weight / body weight + systemic / in life observation / food consumption / food consumption): 50 mg/kg/day | LEL [2, 19]: 50 mg/kg/day | NEL [2, 19]: 12 mg/kg/day | NOAEL [2, 19]: 12 mg/kg/day | LEL [3, 20]: 3.49 mg/kg/day | LOAEL [3, 20]: 3.49 mg/kg/day | NEL [3, 21]: 0.77 mg/kg/day | NOAEL [3, 21]: 0.77 mg/kg/day | LEL [4, 22]: 100 mg/kg/day | LOAEL [4, 22]: 100 mg/kg/day | NEL [4, 22]: 25 mg/kg/day | NOAEL [4, 22]: 25 mg/kg/day | LEL [4, 23]: 25 mg/kg/day | LOAEL [4, 23]: 25 mg/kg/day | NEL [4, 24]: 5 mg/kg/day | NOAEL [4, 24]: 5 mg/kg/day | LEL [5]: 261 mg/kg/day | LOAEL [5]: 261 mg/kg/day | NEL [5]: 23 mg/kg/day | NOAEL [5]: 23 mg/kg/day | LEL [6]: 5.11 mg/kg/day | LOAEL [6]: 5.11 mg/kg/day | NEL [6]: 2.09 mg/kg/day | NOAEL [6]: 2.09 mg/kg/day | LEL ([7]; group: offspring, systemic / in life observation / body weight / offspring (pup) weight): 7.77 mg/kg/day | LOAEL [7, 25]: > 54 mg/kg/day | NEL [7, 25]: 0.948 mg/kg/day | NOAEL [7, 25]: ≥ 54 mg/kg/day | LOAEL ([7]; group: parental, systemic / in life observation / body weight / body weight gain): 5.83 mg/kg/day | NEL [7, 26]: 0.736 mg/kg/day | NOAEL [7, 26]: 0.736 mg/kg/day | LEL ([7]; group: parental, systemic / in life observation / body weight / body weight gain + systemic / in life observation / food consumption / food consumption): 5.83 mg/kg/day | LEL [7, 27]: 54 mg/kg/day | LOAEL [7, 27]: > 54 mg/kg/day | NEL [7, 27]: 7.77 mg/kg/day | NOAEL [7, 27]: ≥ 54 mg/kg/day

CC(C)(C)[C@H](O)[C@H](Cc1ccc(Cl)cc1)n1cncn1 [Paclobutrazol]
LOAEL [8, 28]: 62.5 mg/kg/day | NOAEL [8, 28]: 12.5 mg/kg/day | LEL [8, 29]: 2.5 mg/kg/day | NEL [8, 29]: < 2.5 mg/kg/day | LEL [9]: 75 mg/kg/day | LOAEL [9]: 75 mg/kg/day | NEL [9]: 15 mg/kg/day | NOAEL [9]: 15 mg/kg/day | LEL ([10]; systemic / organ weight / kidney / relative to body weight): 18.8 mg/kg/day | NEL ([10]; systemic / organ weight / kidney / relative to body weight + systemic / organ weight / kidney / absolute + systemic / organ weight / liver…): 3.75 mg/kg/day | LOAEL ([10]; systemic / pathology microscopic / liver / steatosis): 112 mg/kg/day | NOAEL ([10]; systemic / pathology microscopic / liver / steatosis + systemic / organ weight / liver / absolute + systemic / organ weight / liver / …): 18.8 mg/kg/day | LEL [11, 30]: 12.5 mg/kg/day | LOAEL [11, 30]: 12.5 mg/kg/day | NEL [11, 30]: 2.5 mg/kg/day | NOAEL [11, 30]: 2.5 mg/kg/day | NEL ([11]; group: parental, systemic / in life observation / body weight / body weight + systemic / in life observation / body weight / body weight gain + systemic / in…): 2.5 mg/kg/day | LOAEL [11, 31]: > 62.5 mg/kg/day | NOAEL [11, 31]: ≥ 62.5 mg/kg/day | LEL ([11]; group: parental, systemic / in life observation / clinical signs / red or crusty deposits around eyes, ears, nose, or mouth + systemic / pathology gross / …): 12.5 mg/kg/day | LEL ([12]; systemic / clinical chemistry / triglycerides / triglycerides): 12.5 mg/kg/day | LOAEL [12, 32]: 62.5 mg/kg/day | NOAEL [12, 32]: 12.5 mg/kg/day | NEL ([12]; systemic / pathology microscopic / liver / hypertrophy + systemic / clinical chemistry / triglycerides / triglycerides + systemic / …): 2.5 mg/kg/day | LEL [13, 33]: 125 mg/kg/day | LOAEL [13, 33]: 125 mg/kg/day | NEL [13, 33]: 75 mg/kg/day | NOAEL [13, 33]: 75 mg/kg/day | LEL [13, 34]: 125 mg/kg/day | LOAEL [13, 34]: 125 mg/kg/day | NEL [13, 34]: 75 mg/kg/day | NOAEL [13, 34]: 75 mg/kg/day | LOAEL ([14]; group: developmental, developmental / developmental malformation / bone / incomplete ossification + developmental / developmental malformation / bone / unossified): 100 mg/kg/day | NOAEL ([14]; group: developmental, developmental / developmental malformation / bone / incomplete ossification + developmental / developmental malformation / bone / unossified…): 40 mg/kg/day | LEL [14, 35]: 40 mg/kg/day | NEL [14, 35]: < 40 mg/kg/day | LEL [14, 23]: 100 mg/kg/day | LOAEL [14, 23]: 100 mg/kg/day | NEL [14, 36]: 40 mg/kg/day | NOAEL [14, 36]: 40 mg/kg/day
